Where a name gives a salt, the structure may show the parent alone.
Experiments:
[1] = target: T1, Recombinant human integrin ανβ3 (Homo sapiens, UniProt P05106+P06756); assay: Solid Phase Receptor Assay (SPRA) for ανβ3 function; format: binding; details: plate-bound human vitronectin; read-out: αvβ3 SPRA IC50
T1 construct: purchased R&D Systems 3050-AV
Experimental: C. Solid Phase Receptor Assay (SPRA) for ανβ3 Function
Wells were washed 3 times with 150 μL TBS+ and then 150 μL of blocking buffer (TBS+ with 1% bovine serum albumin, Sigma A7906) was added. The plate was incubated for 1 hr at 37° C. and then washed 3× with TBS+ buffer. […] Compounds were diluted to 20 μM and then 1 μL was added to each well of the plate according to a standard template with each sample repeated in triplicate. After incubation for two hours at room temperature, the plate was washed 3× with 150 μL of TBS+ buffer. To each well, 50 μL of biotinylated anti-αν antibody (R&D Systems, BAF1219) at 0.5 μg/mL in TBS+/0.1% BSA were added and the plate covered and incubated for 1 hr at room temperature. After washing the plate 3× with 150 μL of TBS+ buffer, 50 μL of streptavidin-conjugated horseradish peroxidase (R&D Systems, DY998) diluted in TBS+ blocking buffer were added to the wells and the plate incubated for 20 min at room temperature. The plate was washed 3× with TBS+ buffer followed by 50 μL of TMB substrate (Sigma, T4444) added to each well in the dark and the plate was incubated for 25 min at room temperature. 25 μL of 1.0 M phosphoric acid was added as a stop solution and the plates were read at 450 nm using a Spectramax plate reader.

[2] = target: T2, Recombinant human integrin α5β1 (Homo sapiens, UniProt P05556+P08648); assay: Solid Phase Receptor Assay (SPRA) for α5β1 function; format: binding; details: plate-bound human fibronectin
T2 construct: purchased R&D Systems 3230-A5
T2 sequence (P08648 42-995 limits assumed): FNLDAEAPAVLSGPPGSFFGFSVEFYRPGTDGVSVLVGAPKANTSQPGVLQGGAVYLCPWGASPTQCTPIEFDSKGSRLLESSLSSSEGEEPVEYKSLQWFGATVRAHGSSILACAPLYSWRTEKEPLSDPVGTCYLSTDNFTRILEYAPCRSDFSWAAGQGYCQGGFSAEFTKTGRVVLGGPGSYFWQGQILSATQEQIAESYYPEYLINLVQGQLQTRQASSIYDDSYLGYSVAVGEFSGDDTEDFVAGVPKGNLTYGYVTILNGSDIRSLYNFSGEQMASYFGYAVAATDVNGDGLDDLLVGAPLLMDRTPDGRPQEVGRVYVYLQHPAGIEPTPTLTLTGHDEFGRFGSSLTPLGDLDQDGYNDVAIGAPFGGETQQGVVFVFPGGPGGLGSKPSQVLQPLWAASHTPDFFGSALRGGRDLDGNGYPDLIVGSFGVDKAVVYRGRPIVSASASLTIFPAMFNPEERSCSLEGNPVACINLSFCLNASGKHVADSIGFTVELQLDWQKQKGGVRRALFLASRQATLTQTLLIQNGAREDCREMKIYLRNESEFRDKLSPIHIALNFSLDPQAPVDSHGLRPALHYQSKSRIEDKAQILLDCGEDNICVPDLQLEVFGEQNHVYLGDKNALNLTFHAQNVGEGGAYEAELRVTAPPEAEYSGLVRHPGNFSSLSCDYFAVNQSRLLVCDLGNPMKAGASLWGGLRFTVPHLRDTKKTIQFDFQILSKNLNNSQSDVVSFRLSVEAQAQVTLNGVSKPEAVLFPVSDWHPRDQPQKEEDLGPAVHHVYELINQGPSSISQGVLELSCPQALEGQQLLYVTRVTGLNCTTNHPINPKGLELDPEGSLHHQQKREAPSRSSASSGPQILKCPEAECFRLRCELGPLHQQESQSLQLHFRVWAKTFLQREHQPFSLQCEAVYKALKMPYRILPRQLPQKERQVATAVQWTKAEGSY
T2 sequence (P05556 21-728 limits assumed): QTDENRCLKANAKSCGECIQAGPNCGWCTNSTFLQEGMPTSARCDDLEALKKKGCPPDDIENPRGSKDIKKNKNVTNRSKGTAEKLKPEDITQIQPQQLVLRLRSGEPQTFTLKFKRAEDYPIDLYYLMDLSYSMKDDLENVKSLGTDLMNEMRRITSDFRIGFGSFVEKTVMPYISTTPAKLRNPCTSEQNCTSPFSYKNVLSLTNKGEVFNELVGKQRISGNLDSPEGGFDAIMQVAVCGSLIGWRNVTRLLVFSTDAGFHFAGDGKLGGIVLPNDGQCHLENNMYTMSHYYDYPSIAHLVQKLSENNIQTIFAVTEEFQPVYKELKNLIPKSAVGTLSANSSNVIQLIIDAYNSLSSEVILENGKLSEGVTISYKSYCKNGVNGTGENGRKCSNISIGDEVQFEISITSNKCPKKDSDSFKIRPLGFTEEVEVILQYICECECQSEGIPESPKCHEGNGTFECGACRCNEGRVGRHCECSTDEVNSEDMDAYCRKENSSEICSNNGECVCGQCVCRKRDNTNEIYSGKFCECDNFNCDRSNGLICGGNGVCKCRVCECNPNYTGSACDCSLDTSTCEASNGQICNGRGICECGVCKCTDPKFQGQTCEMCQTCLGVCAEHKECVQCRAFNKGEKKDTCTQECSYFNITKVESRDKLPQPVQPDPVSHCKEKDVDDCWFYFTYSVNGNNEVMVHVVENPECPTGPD
Experimental: A. Solid Phase Receptor Assay (SPRA) for α5β1 Function
Wells were washed 3 times with 150 μL TBS+ and then 150 μL of blocking buffer (TBS+ with 1% bovine serum albumin, Sigma A7906) was added. The plate was incubated for 1 hr at 37° C. and then washed 3× with TBS+ buffer. […] Compounds were diluted to 20 μM and then 1 μL was added to each well of the plate according to a standard template with each sample repeated in triplicate. After incubation for two hours at room temperature, the plate was washed 3× with 150 μL of TBS+ buffer. To each well, 50 μL of biotinylated anti-α5 antibody (R&D Systems, BAF1864) at 0.5 μg/mL in TBS+/0.1% BSA were added and the plate covered and incubated for 1 hr at room temperature. After washing the plate 3× with 150 μL of TBS+ buffer, 50 μL of streptavidin-conjugated horseradish peroxidase (R&D Systems, DY998) diluted in TBS+ blocking buffer were added to the wells and the plate incubated for 20 min at room temperature. The plate was washed 3× with TBS+ buffer followed by 50 μL of room temperature TMB substrate (Sigma, T4444) added to each well in the dark and the plate incubated for 25 min at room temperature. 25 μL of 1.0 M phosphoric acid was added as a stop solution and the plates were read at 450 nm using a Spectramax plate reader.

T1 sequence (P06756 31-992 limits assumed): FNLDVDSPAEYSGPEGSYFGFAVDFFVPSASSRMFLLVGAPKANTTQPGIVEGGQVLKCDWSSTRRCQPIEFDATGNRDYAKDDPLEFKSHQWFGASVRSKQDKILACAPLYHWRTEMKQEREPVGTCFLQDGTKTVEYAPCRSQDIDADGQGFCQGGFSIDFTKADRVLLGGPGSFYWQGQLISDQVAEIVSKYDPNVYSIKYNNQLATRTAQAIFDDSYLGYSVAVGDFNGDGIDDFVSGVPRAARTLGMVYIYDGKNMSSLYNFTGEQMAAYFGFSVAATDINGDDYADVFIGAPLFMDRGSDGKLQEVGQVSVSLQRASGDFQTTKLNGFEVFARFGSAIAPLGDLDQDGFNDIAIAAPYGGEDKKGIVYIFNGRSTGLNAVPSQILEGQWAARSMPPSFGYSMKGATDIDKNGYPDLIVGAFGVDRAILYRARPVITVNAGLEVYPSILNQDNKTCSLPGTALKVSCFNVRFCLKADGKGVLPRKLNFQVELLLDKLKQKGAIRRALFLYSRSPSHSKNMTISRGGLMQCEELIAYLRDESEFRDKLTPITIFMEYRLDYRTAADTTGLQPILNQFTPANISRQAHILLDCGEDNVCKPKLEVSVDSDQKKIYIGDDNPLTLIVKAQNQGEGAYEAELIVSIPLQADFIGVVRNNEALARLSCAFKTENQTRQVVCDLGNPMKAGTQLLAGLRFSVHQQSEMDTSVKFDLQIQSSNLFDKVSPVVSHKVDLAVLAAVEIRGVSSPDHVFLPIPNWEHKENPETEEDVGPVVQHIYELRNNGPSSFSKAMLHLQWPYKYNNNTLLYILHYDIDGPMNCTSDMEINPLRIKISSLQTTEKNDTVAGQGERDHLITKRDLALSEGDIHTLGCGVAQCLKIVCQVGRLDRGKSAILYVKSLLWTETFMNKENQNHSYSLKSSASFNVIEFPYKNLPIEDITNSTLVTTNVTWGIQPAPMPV
T1 sequence (P05106 27-718 limits assumed): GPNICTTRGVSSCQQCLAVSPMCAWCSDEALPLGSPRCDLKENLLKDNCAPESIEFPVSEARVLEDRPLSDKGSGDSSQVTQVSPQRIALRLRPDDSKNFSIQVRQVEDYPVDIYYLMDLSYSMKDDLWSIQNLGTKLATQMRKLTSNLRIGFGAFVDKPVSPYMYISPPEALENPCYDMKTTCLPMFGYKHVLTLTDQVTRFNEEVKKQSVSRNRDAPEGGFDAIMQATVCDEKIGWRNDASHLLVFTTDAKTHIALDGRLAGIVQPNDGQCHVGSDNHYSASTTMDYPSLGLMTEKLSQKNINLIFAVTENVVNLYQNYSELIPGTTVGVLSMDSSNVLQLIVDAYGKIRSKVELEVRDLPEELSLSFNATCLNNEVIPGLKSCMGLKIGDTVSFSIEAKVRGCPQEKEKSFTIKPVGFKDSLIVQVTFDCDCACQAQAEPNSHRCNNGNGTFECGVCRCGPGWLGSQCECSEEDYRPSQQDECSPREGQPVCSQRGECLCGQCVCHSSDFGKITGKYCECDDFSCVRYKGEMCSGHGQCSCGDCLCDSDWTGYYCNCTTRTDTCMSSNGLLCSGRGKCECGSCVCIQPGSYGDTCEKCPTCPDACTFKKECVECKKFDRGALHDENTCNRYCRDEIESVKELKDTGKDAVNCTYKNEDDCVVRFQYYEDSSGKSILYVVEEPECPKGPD

Cn1nc(CC(CC(=O)O)c2ccc3c(c2)OCCO3)cc1OCCc1ccc2c(n1)NCCC2 (stereo not shown) [Example 1, 3-(2,3-dihydrobenzo[b][1,4]dioxin-6-yl)-4-(1-methyl-5-(2-(5,6,7,8-tetrahydro-1,8-naphthyridin-2-yl)ethoxy)-1H-pyrazol-3-yl)butanoic Acid]
IC50 [1]: 5 nM | IC50 [2]: 229 nM

Cn1nc(CC(CC(=O)O)c2cc(F)cc(Cl)c2)cc1OCCc1ccc2c(n1)NCCC2 (stereo not shown) [Example 2, 3-(3-chloro-5-fluorophenyl)-4-(1-methyl-5-(2-(5,6,7,8-tetrahydro-1,8-naphthyridin-2-yl)ethoxy)-1H-pyrazol-3-yl)butanoic Acid]
IC50 [1]: 4 nM | IC50 [2]: 192 nM

COc1ccc(C(CC(=O)O)Cc2cc(OCCc3ccc4c(n3)NCCC4)n(C)n2)cc1F (stereo not shown) [Example 3, 3-(3-fluoro-4-methoxyphenyl)-4-(1-methyl-5-(2-(5,6,7,8-tetrahydro-1,8-naphthyridin-2-yl)-ethoxy)-1H-pyrazol-3-yl)butanoic Acid]
IC50 [1]: 3 nM | IC50 [2]: 114 nM

Cn1nc(CC(CC(=O)O)c2ccc(Br)c(F)c2)cc1OCCc1ccc2c(n1)NCCC2 (stereo not shown) [Example 4, 3-(4-bromo-3-fluorophenyl)-4-(1-methyl-5-(2-(5,6,7,8-tetrahydro-1,8-naphthyridin-2-yl)ethoxy)-1H-pyrazol-3-yl)butanoic Acid]
IC50 [1]: 3 nM | IC50 [2]: 343 nM

Cn1nc(CC(CC(=O)O)c2ccc(F)c(Br)c2)cc1OCCc1ccc2c(n1)NCCC2 (stereo not shown) [Example 5, 3-(3-bromo-4-fluorophenyl)-4-(1-methyl-5-(2-(5,6,7,8-tetrahydro-1,8-naphthyridin-2-yl)ethoxy)-1H-pyrazol-3-yl)butanoic Acid]
IC50 [1]: 6 nM | IC50 [2]: 140 nM

Cn1nc(CC(CC(=O)O)c2cccc(Br)c2)cc1OCCc1ccc2c(n1)NCCC2 (stereo not shown) [Example 6, 3-(3-bromophenyl)-4-(1-methyl-5-(2-(5,6,7,8-tetrahydro-1,8-naphthyridin-2-yl)ethoxy)-1H-pyrazol-3-yl)butanoic Acid]
IC50 [1]: 5 nM | IC50 [2]: 158 nM

Cn1nc(CC(CC(=O)O)c2ccc(F)c(C#N)c2)cc1OCCc1ccc2c(n1)NCCC2 (stereo not shown) [Example 7, 3-(3-cyano-4-fluorophenyl)-4-(1-methyl-5-(2-(5,6,7,8-tetrahydro-1,8-naphthyridin-2-yl)ethoxy)-1H-pyrazol-3-yl)butanoic Acid]
IC50 [1]: 7 nM | IC50 [2]: 224 nM

Cn1nc(CC(CC(=O)O)c2ccc(C#N)c(F)c2)cc1OCCc1ccc2c(n1)NCCC2 (stereo not shown) [Example 8]
IC50 [1]: 6 nM | IC50 [2]: 166 nM

Cn1nc(CC(CC(=O)O)c2cccc(C#N)c2)cc1OCCc1ccc2c(n1)NCCC2 (stereo not shown) [Example 9, 3-(3-cyanophenyl)-4-(1-methyl-5-(2-(5,6,7,8-tetrahydro-1,8-naphthyridin-2-yl)ethoxy)-1H-pyrazol-3-yl)butanoic Acid]
IC50 [1]: 6 nM | IC50 [2]: 110 nM

Cn1nc(CC(CC(=O)O)c2cc(Br)cc(C(F)(F)F)c2)cc1OCCc1ccc2c(n1)NCCC2 (stereo not shown) [Example 10, 3-(3-bromo-5-(trifluoromethyl)phenyl)-4-(1-methyl-5-(2-(5,6,7,8-tetrahydro-1,8-naphthyridin-2-yl)ethoxy)-1H-pyrazol-3-yl)butanoic Acid]
IC50 [1]: 3.6 nM | IC50 [2]: 120 nM

Cn1nc(CC(CC(=O)O)c2cc(Br)cc(OC(F)(F)F)c2)cc1OCCc1ccc2c(n1)NCCC2 (stereo not shown) [Example 11, 3-(3-bromo-5-(trifluoromethoxy)phenyl)-4-(1-methyl-5-(2-(5,6,7,8-tetrahydro-1,8-naphthyridin-2-yl)ethoxy)-1H-pyrazol-3-yl)butanoic Acid]
IC50 [1]: 6 nM | IC50 [2]: 150 nM

COc1ccc(C(F)(F)F)cc1C(CC(=O)O)Cc1cc(OCCc2ccc3c(n2)NCCC3)n(C)n1 (stereo not shown) [Example 13, 3-(2-methoxy-5-(trifluoromethyl)phenyl)-4-(1-methyl-5-(2-(5,6,7,8-tetrahydro-1,8-naphthyridin-2-yl)ethoxy)-1H-pyrazol-3-yl)butanoic Acid Trifluoroacetate]
IC50 [1]: 11 nM | IC50 [2]: 59 nM

COc1ccc(Br)cc1C(CC(=O)O)Cc1cc(OCCc2ccc3c(n2)NCCC3)n(C)n1 (stereo not shown) [Example 14, 3-(5-bromo-2-methoxyphenyl)-4-(1-methyl-5-(2-(5,6,7,8-tetrahydro-1,8-naphthyridin-2-yl)ethoxy)-1H-pyrazol-3-yl)butanoic acid trifluoroacetate]
IC50 [1]: 6.7 nM | IC50 [2]: 44 nM

COc1ccc([C@H](CC(=O)O)Cc2cc(OCCc3ccc4c(n3)NCCC4)n(C)n2)cc1F [Example 15, (3S)-3-(3-fluoro-4-methoxyphenyl)-4-(1-methyl-5-(2-(5,6,7,8-tetrahydro-1,8-naphthyridin-2-yl)ethoxy)-1H-pyrazol-3-yl)butanoic Acid]
IC50 [1]: 2.6 nM | IC50 [2]: 85 nM

Cn1nc(CC(CC(=O)O)c2cc(Br)cc(C(C)(C)C)c2)cc1OCCc1ccc2c(n1)NCCC2 (stereo not shown) [Example 16, 3-(3-bromo-5-tert-butyl-phenyl)-4-(1-methyl-5-(2-(5,6,7,8-tetrahydro-1,8-naphthyridin-2-yl)ethoxy)-1H-pyrazol-3-yl)butanoic Acid]
IC50 [1]: 7.7 nM | IC50 [2]: 30 nM

Cn1nc(CC(CC(=O)O)c2cc(C#N)cc(C(C)(C)C)c2)cc1OCCc1ccc2c(n1)NCCC2 (stereo not shown) [Example 17]
IC50 [1]: 7.4 nM | IC50 [2]: 11 nM

Cn1nc(CC(CC(=O)O)c2cc(C(C)(C)C)cc(C(C)(C)C)c2)cc1OCCc1ccc2c(n1)NCCC2 (stereo not shown) [Example 18, 3-(3,5-di-tert-butylphenyl)-4-[1-methyl-5-[2-(5,6,7,8-tetrahydro-1,8-naphthyridin-2-yl)ethoxyl]pyrazol-3-yl]butanoic Acid]
IC50 [1]: 84 nM | IC50 [2]: 6.4 nM

Cn1nc(CC(CC(=O)O)c2cc(Br)cc(C3(C(F)F)CC3)c2)cc1OCCc1ccc2c(n1)NCCC2 (stereo not shown) [Example 19, 3-(3-bromo-5-(1-(difluoromethyl)cyclopropyl)phenyl)-4-(1-methyl-5-(2-(5,6,7,8-tetrahydro-1,8-naphthyridin-2-yl)ethoxy)-1H-pyrazol-3-yl)butanoic Acid]
IC50 [1]: 6.4 nM | IC50 [2]: 15 nM

Cn1nc(CC(CC(=O)O)c2cc(C#N)cc(C3(C(F)F)CC3)c2)cc1OCCc1ccc2c(n1)NCCC2 (stereo not shown) [Example 20, 3-(3-cyano-5-(1-(difluoromethyl)cyclopropyl)phenyl)-4-(1-methyl-5-(2-(5,6,7,8-tetrahydro-1,8-naphthyridin-2-yl)ethoxy)-1H-pyrazol-3-yl)butanoic Acid]
IC50 [1]: 3.6 nM | IC50 [2]: 5.5 nM

Cn1nc(CC(CC(=O)O)c2cc(F)cc(C3(C(F)F)CC3)c2)cc1OCCc1ccc2c(n1)NCCC2 (stereo not shown) [Example 21, 3-(3-(1-(difluoromethyl)cyclopropyl)-5-fluorophenyl)-4-(1-methyl-5-(2-(5,6,7,8-tetrahydro-1,8-naphthyridin-2-yl)ethoxy)-1H-pyrazol-3-yl)butanoic Acid]
IC50 [1]: 2.5 nM | IC50 [2]: 12 nM

Cn1nc(CC(CC(=O)O)c2cc(Cl)cc(C3(C(F)F)CC3)c2)cc1OCCc1ccc2c(n1)NCCC2 (stereo not shown) [Example 22, 3-(3-chloro-5-(1-(difluoromethyl)cyclopropyl)phenyl)-4-(1-methyl-5-(2-(5,6,7,8-tetrahydro-1,8-naphthyridin-2-yl)ethoxy)-1H-pyrazol-3-yl)butanoic Acid]
IC50 [1]: 3.3 nM | IC50 [2]: 8.8 nM

Cn1nc(CC(CC(=O)O)c2cc(C(F)(F)F)cc(C3(C(F)F)CC3)c2)cc1OCCc1ccc2c(n1)NCCC2 (stereo not shown) [Example 23, 3-(3-(1-(difluoromethyl)cyclopropyl)-5-(trifluoromethyl)phenyl)-4-(1-methyl-5-(2-(5,6,7,8-tetrahydro-1,8-naphthyridin-2-yl)ethoxy)-1H-pyrazol-3-yl)butanoic Acid]
IC50 [1]: 7.5 nM | IC50 [2]: 8.8 nM

Cn1nc(CC(CC(=O)O)c2cc(F)cc(C(C)(C)C(F)(F)F)c2)cc1OCCc1ccc2c(n1)NCCC2 (stereo not shown) [Example 24, 3-(3-fluoro-5-(1,1,1-trifluoro-2-methylpropan-2-yl)phenyl)-4-(1-methyl-5-(2-(5,6,7,8-tetrahydro-1,8-naphthyridin-2-yl)ethoxy)-1H-pyrazol-3-yl)butanoic Acid]
IC50 [1]: 4.5 nM | IC50 [2]: 15 nM
